# Earlier results, collected in patent publication US20030008852A1, “Transdermal system containing acetylsalicylic acid for treatment of migraine” (priority 1999, published 2003).
# Tested on: migraine
# Conditions: oral, 235 mg every second day
smiles,measurement,value
CC(=O)Oc1ccccc1C(=O)O [acetylsalicylic acid],reduction in the migraine recurrence rate compared with the placebo group,20%
